pIC50: −log10 of the molar value.
Experiments:
[1] = biological target: HDAC1 (Homo sapiens (Human), UniProt Q13547); assay: HDAC1 enzyme activity inhibition (HDAC1 Fluorimetric Drug Discovery Assay Kit); type: biochemical; conditions: samples at 100, 1000 and 10000 nM; 37° C. 60 minutes
Procedure: (§1) A HDAC enzyme inhibitory capacity of a test material was measured by using HDAC1 Fluorimetric Drug Discovery Assay Kit (Enzolifesciences: BML-AK511) and HDAC6 human recombinant (Calbiochem: 382180). For a HDAC1 assay, samples were treated at a concentration of 100, 1000 and 10000 nM. For a HDAC6 assay, samples were treated at a concentration of 0.1, 1, 10, 100 and 1000 nM. After the above sample treatment, a reaction was continued at 37° C. for 60 minutes, treated with a developer, and subjected to reaction at 37° C. for 30 minutes, after which fluorescence intensity (Ex 390, Em 460) was measured by using FlexStatin3 (Molecular device).

[2] = biological target: HDAC6 human recombinant (Homo sapiens (Human), UniProt Q9UBN7); assay: HDAC6 enzyme activity inhibition (fluorimetric, in vitro); type: biochemical; conditions: samples at 0.1, 1, 10, 100 and 1000 nM; 37° C. 60 minutes
Sequence of HDAC6 human recombinant (Q9UBN7 whole entry): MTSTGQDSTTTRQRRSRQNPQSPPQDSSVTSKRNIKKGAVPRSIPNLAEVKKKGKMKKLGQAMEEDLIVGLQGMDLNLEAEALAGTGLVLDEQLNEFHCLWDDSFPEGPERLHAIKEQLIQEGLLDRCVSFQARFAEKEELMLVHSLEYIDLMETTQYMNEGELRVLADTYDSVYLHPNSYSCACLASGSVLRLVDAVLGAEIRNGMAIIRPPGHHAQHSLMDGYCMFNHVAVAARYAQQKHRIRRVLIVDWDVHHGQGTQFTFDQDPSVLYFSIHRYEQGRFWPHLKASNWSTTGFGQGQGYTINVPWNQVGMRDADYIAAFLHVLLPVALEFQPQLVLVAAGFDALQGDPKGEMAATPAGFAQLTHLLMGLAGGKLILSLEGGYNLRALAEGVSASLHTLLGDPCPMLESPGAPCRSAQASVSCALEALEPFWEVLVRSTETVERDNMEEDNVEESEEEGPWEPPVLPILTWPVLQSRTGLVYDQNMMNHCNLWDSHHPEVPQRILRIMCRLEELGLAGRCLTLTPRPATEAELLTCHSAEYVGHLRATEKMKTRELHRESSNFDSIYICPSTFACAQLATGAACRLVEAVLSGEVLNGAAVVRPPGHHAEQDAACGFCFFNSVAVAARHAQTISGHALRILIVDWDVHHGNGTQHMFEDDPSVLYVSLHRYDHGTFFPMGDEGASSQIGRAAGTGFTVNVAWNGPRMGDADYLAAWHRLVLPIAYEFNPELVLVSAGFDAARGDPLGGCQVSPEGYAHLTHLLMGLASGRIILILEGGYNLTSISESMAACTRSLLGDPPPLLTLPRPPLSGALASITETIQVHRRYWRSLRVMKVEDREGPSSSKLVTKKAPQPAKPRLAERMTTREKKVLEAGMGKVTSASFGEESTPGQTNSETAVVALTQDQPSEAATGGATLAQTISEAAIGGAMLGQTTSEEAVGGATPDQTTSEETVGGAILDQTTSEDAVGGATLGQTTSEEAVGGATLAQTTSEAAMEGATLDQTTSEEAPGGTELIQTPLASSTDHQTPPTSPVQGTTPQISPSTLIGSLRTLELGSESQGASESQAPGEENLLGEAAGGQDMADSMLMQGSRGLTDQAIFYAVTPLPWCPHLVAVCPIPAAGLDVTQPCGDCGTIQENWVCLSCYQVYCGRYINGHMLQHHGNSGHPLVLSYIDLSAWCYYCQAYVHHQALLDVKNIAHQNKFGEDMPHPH
Procedure: as §1

Sequence of HDAC1 (Q13547 whole entry): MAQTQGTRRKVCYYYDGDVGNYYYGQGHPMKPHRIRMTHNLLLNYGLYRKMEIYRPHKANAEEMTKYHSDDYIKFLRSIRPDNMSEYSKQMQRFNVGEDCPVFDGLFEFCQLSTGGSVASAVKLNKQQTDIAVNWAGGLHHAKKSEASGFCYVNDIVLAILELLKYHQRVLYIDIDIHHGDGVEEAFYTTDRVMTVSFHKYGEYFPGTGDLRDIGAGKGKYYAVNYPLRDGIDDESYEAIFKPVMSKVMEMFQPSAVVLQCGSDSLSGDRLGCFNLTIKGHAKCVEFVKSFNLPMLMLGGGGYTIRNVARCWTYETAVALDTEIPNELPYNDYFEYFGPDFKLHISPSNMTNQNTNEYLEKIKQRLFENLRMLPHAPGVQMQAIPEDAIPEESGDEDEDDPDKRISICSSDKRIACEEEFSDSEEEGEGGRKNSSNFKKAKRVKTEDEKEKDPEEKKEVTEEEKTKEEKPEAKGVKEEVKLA

SMILES | pIC50 [1] | pIC50 [2]
CC(C)N1CCC2(CC1)C(=O)N(Cc1ccc(-c3nnc(C(F)F)o3)cn1)C(=O)N2c1cccc(F)c1 [Compound 8, 3-((5-(5-(difluoromethyl)-1,3,4-oxadiazol-2-yl)pyridin-2-yl)methyl)-1-(3-fluorophenyl)-8-isopropyl-1,3,8-triazaspiro[4.5]decan-2,4-dione] | < 5.00 | 7.00
CC1(C)C(=O)N(Cc2ccc(-c3nnc(C(F)F)o3)cn2)C(=O)N1c1ccc(-c2cccnc2)cc1 [Compound 27, 3-((5-(5-(difluoromethyl)-1,3,4-oxadiazol-2-yl)pyridin-2-yl)methyl)-5,5-dimethyl-1-(4-(pyridin-3-yl)phenyl)imidazolidin-2,4-dione] | < 5.00 | 7.26
CN1CCC2(CC1)C(=O)N(Cc1ccc(-c3nnc(C(F)F)o3)cn1)C(=O)N2c1cccc(F)c1 [Compound 6, 3-((5-(5-(difluoromethyl)-1,3,4-oxadiazol-2-yl)pyridin-2-yl)methyl)-1-(3-fluorophenyl)-8-methyl-1,3,8-triazaspiro[4.5]decan-2,4-dione] | < 5.00 | 6.98
CN1CC=C(c2cccc(N3C(=O)N(Cc4ccc(-c5nnc(C(F)F)o5)cn4)C(=O)C3(C)C)c2)CC1 [Compound 19, 3-((5-(5-(difluoromethyl)-1,3,4-oxadiazol-2-yl)pyridin-2-yl)methyl)-5,5-dimethyl-1-(3-(1-methyl-1,2,3,6-tetrahydropyridin-4-yl)phenyl)imidazolidin-2,4-dione] | < 5.00 | 7.07
CC1(C)C(=O)N(Cc2ccc(-c3nnc(C(F)F)o3)cn2)C(=O)N1c1ccc(-c2ccoc2)cc1 [Compound 25, 3-((5-(5-(difluoromethyl)-1,3,4-oxadiazol-2-yl)pyridin-2-yl)methyl)-1-(4-(furan-3-yl)phenyl)-5,5-dimethylimidazolidin-2,4-dione] | < 5.00 | 6.97
CC1(C)C(=O)N(Cc2ccc(-c3nnc(C(F)F)o3)cn2)C(=O)N1c1ccc(F)cc1F [Compound 14, 3-((5-(5-(difluoromethyl)-1,3,4-oxadiazol-2-yl)pyridin-2-yl)methyl)-1-(2,4-difluorophenyl)-5,5-dimethylimidazolidin-2,4-dione] | < 5.00 | 7.25
CC1(C)C(=O)N(Cc2ccc(-c3nnc(C(F)F)o3)cn2)C(=O)N1c1ccc(-c2ccncc2)cc1 [Compound 26, 3-((5-(5-(difluoromethyl)-1,3,4-oxadiazol-2-yl)pyridin-2-yl)methyl)-5,5-dimethyl-1-(4-(pyridin-4-yl)phenyl)imidazolidin-2,4-dione] | < 5.00 | 7.32
O=C1CN(c2ccccc2)C(=O)N1Cc1ccc(-c2nnc(C(F)F)o2)cc1F [Compound 3, 3-(4-(5-(difluoromethyl)-1,3,4-oxadiazol-2-yl)-2-fluorobenzyl)-1-phenylimidazolidin-2,4-dione] | < 5.00 | 6.66
CN1CC2(C1)C(=O)N(Cc1ccc(-c3nnc(C(F)F)o3)cn1)C(=O)N2c1ccccc1 [Compound 21, 7-((5-(5-(difluoromethyl)-1,3,4-oxadiazol-2-yl)pyridin-2-yl)methyl)-2-methyl-5-phenyl-2,5,7-triazaspiro[3.4]octan-6,8-dione] | < 5.00 | 6.62
CC1(C)C(=O)N(Cc2ccc(-c3nnc(C(F)F)o3)cn2)C(=O)N1c1cccc([N+](=O)[O-])c1 [Compound 34, 3-((5-(5-(difluoromethyl)-1,3,4-oxadiazol-2-yl)pyridin-2-yl)methyl)-5,5-dimethyl-1-(3-nitrophenyl)imidazolidin-2,4-dione] | < 5.00 | 7.34
